Test results as given in paper PMC11477875, “Ecotoxicity and Mutagenicity Assessment of Novel Antifungal Agents VT-1161 and T-2307” (Molecules, 2024).
Values after ≈ are worked out from the molar mass of the structure shown. Where two headings read alike, the source gives them in different places.

Legend:
D. magna [1] = test: Literature D. magna toxicity data used for hazard ranking; assay type: in vivo, Daphnia magna; details: for Hazard Ranking: GHS, from literature EC50 D. magna 48 h
Source text: (§1) The hazard ranking of antifungal compounds is crucial for understanding their environmental impact and guiding regulatory decisions. This study utilizes data from existing literature to classify the effective concentrations (EC50) of various antifungal compounds according to the Globally Harmonized System of Classification and Labelling of Chemicals (GHS).
(§2) Furthermore, multiple fungicide compounds were classified according to the Globally Harmonized System of Classification and Labeling of Chemicals (GHS) to compare the hazard ranking of substances currently on the market and the two substances of this study.

D. magna [2] = details: cited from earlier work
Green algae [3] = details: cited from earlier work
R. subcapitata [4] = test: Literature R. subcapitata toxicity data used for hazard ranking; assay type: cell-based, Raphidocelis subcapitata; details: GHS, from literature EC50 R. subcapitata 72 h
Source text: as §1, §2

Green algae [5] = test: Literature green algae toxicity data used for hazard ranking; assay type: cell-based; details: GHS
Source text: as §1, §2

R. subcapitata [6] = details: cited from earlier work
Daphnia magna = Daphnia magna acute immobilization test (this study); assay type: in vivo; details: for immobility: 50 mg L^−1; for Hazard Ranking: GHS, from EC50 D. magna 48 h, this study
Experimental: The immobilization tests with D. magna were conducted following ISO guidelines using an in-house culture at the Hygiene Department at the UNINA. Organisms under 24 h old were exposed to concentrations of 1.56, 3.12, 6.25, 12.50, 25, and 50 mg L^−1 and to a negative control of freshwater media. Each concentration had four replicates containing five organisms each. The exposure was conducted at a temperature of 20 ± 1 °C and under continuous illumination of approx. 1000 lux. Immobilization was assessed at 24 and 48 h after exposure using a stereomicroscope.
(§3) Data were analyzed with R Studio for Windows (Version 2023.06.0). The effective concentrations causing 50% of the response on the organisms A. fischeri, R. subcapitata, and D. magna were estimated by fitting on dose–response models using the extension package “drc” [49]. For the data analysis of R. subcapitata and A. fischeri tests, the measurements were normalized to the control to estimate an inhibition percentage.

Raphidocelis subcapitata = Raphidocelis subcapitata growth inhibition test (this study); assay type: cell-based; details: for Hazard Ranking: GHS, from EC50 R. subcapitata 72 h, this study
Experimental: The growth inhibition test with R. subcapitata was conducted following ISO guidelines using an in-house culture at the Hygiene Department at the UNINA. Algal cultures were incubated in Erlenmeyer flasks at 20 ± 1 °C on a shaker at 100 rpm and under continuous daylight fluorescent tube illumination of approximately 6300 lux with […]. The initial inoculum concentration was set at 10^4 cells mL^−1, exposed to the concentrations of 1.56, 3.12, 6.25, 12.50, 25, and 50 mg L^−1 and to a negative control of freshwater media. Six replicates were set up for both the control samples and the treatments and were maintained under the same conditions as the algal culture for 72 h.
as §3

Aliivibrio fischeri = Aliivibrio fischeri luminescence inhibition test (this study); assay type: cell-based
Experimental: The luminescence inhibition test was performed on Allivibrio fischeri (strain NRRL-B-11177), purchased from WaterTox STD (ECOtest S.L., Valencia, Spain), and performed according to [46]. The luminescence was measured using a Microtox luminometer Model 500, (AZUR Environmental, Carlsbad, CA, USA) equipped with a cell incubated at a constant temperature of 15 ± 1 °C, and readings were taken after 30 min of exposure at a wavelength of 490 nm. The Osmotic Adjustment Solution was added to the media to adapt the marine bacterium to freshwater. […] Data were analyzed with R Studio for Windows (Version 2023.06.0). The effective concentrations causing 50% of the response on the organisms A. fischeri, R. subcapitata, and D. magna were estimated by fitting on dose–response models using the extension package “drc” [49]. For the data analysis of R. subcapitata and A. fischeri tests, the measurements were normalized to the control to estimate an inhibition percentage.

[7] = system: Salmonella typhimurium strain TA100; test: Salmonella typhimurium mutagenicity assay; assay type: cell-based; details: for mutagenicity (result in words): TA100, 1.56 and 50 mg L^−1; for mutagenicity ratio: TA100, both concentrations 1.56 and 50 mg L^−1, mutagenic if ratio 2 or greater
Experimental: The mutagenicity in Salmonella typhimurium strain TA100 was assessed by observing the potential mutations that would allow the bacteria to grow without needing histidine (his-), following the protocol. For the assay, a kit obtained from ECOTOX LDS (Milan, Italy) was used to perform the test. Two exposure concentrations of 1.56 and 50 mg L^−1 of each compound were used and bromocresol purple was added as a pH indicator. Distilled water served as the negative control and sodium azide as the positive control for TA100 without S9 ([…]).
The plates were incubated at 37 °C for 3 to 5 days and sealed in hermetic plastic bags to avoid contamination. […] Wells that remained purple indicated a negative result (non-mutagenic compound).
For the test organism S. typhimurium, results were expressed as the mutagenicity ratio. This was calculated by dividing the number of revertants (his+) in the treatments by the number of naturally occurring (negative control). The treatments were considered mutagenic if the mutagenicity ratio was 2 or greater.

[8] = system: A. fischeri, R. subcapitata, and D. magna; test: Summary over the species tested (A. fischeri, R. subcapitata, D. magna) and GHS classification
Experimental: as §3, §2

Structure (SMILES): OC(Cn1cncn1)(Cn1cncn1)c1ccc(F)cc1F [Fluconazole]
- GHS hazard category (in words) (D. magna [1]; from literature EC50 D. magna, EC50 > 100 mg L^−1): not harmful
- EC50 (D. magna [2]; 48 h ref 30): 0.002766 mg/L (≈ 0.00903 µM)
- EC50 (D. magna [2]; 48 h ref 37): 530 mg/L (≈ 1730 µM)
- EC50 (Green algae [3]; 96 h ref 30): 0.001162 mg/L (≈ 0.00379 µM)
- EC50 (Green algae [3]; 96 h ref 37): 55.4 mg/L (≈ 181 µM)

Structure (SMILES): CC(=O)N1CCN(c2ccc(OCC3COC(Cn4ccnc4)(c4ccc(Cl)cc4Cl)O3)cc2)CC1 (centres unmarked) [Ketoconazole]
- Hazard Ranking (D. magna [1]): *** (Toxic (<1 mg L^−1 ≤ 10 mg L^−1))
- Hazard Ranking (R. subcapitata [4]): **** (Very toxic (≤1 mg L^−1))
- Hazard Ranking (Green algae [5]; from literature EC50 green algae 72 h): **** (Very toxic (≤1 mg L^−1))
- Hazard Ranking (Green algae [5]; from literature EC50 green algae 96 h): *** (Toxic (<1 mg L^−1 ≤ 10 mg L^−1))
- EC50 (D. magna [2]; 48 h ref 30): 2.39 mg/L (≈ 4.5 µM)
- EC50 (D. magna [2]; 48 h ref 34): 6.57 mg/L (≈ 12.4 µM)
- EC50 (D. magna [2]; 48 h ref 38): 6.57 mg/L (≈ 12.4 µM)
- EC50 (D. magna [2]; 48 h ref 39, listed as ketoconazole): 1.51 mg/L (≈ 2.84 µM)
- EC50 (D. magna [2]; 48 h ref 39): 1.5 mg/L (≈ 2.82 µM)
- EC50 (R. subcapitata [6]; 72 h ref 36): 0.28 mg/L (≈ 0.527 µM)
- EC50 (R. subcapitata [6]; 72 h ref 40): 0.3 mg/L (≈ 0.565 µM)
- EC50 (Green algae [3]; 72 h ref 38): 0.28 mg/L (≈ 0.527 µM)
- EC50 (Green algae [3]; 96 h ref 30): 4.36 mg/L (≈ 8.2 µM)

Structure (SMILES): N=C(N)c1ccc(OCCCC2CCN(CCCOc3ccc(C(=N)N)cc3)CC2)cc1 [T-2307]
- EC50 (effective concentration causing 50% of immobility) (Daphnia magna; D. magna, 48 h): 17.93 mg/L
- immobility (Daphnia magna; D. magna, 48 h): 90%
- Hazard Ranking (Daphnia magna): ** (Harmful: (<10 mg L^−1 ≤ 100 mg L^−1))
- Hazard Ranking (Raphidocelis subcapitata): ** (Harmful: (<10 mg L^−1 ≤ 100 mg L^−1))
- EC50 (effective concentration causing 50% growth inhibition) (Raphidocelis subcapitata; R. subcapitata, 72 h): 14.34 mg/L (≈ 32.8 µM)
- growth inhibition (Raphidocelis subcapitata; R. subcapitata, 72 h, 50 mg L^−1): around 82%
- EC50 (effective concentration causing 50% luminescence inhibition) (Aliivibrio fischeri; A. fischeri, 30 min): 22.58 mg/L (≈ 51.6 µM)
- luminescence inhibition (Aliivibrio fischeri; A. fischeri, 30 min, 50 mg L^−1): ~75%
- mutagenicity (result in words) [7]: non-positive mutagenicity
- mutagenicity ratio [7]: < 2

Structure (SMILES): CC(C)(C)C(O)(CCc1ccc(Cl)cc1)Cn1cncn1 (centres unmarked) [Tebuconazole]
- Hazard Ranking (D. magna [1]): *** (Toxic (<1 mg L^−1 ≤ 10 mg L^−1))
- Hazard Ranking (R. subcapitata [4]): *** (Toxic (<1 mg L^−1 ≤ 10 mg L^−1))
- EC50 (D. magna [2]; 48 h ref 41): 2.37 mg/L (≈ 7.7 µM)
- EC50 (D. magna [2]; 48 h ref 42): 6.75 mg/L (≈ 21.9 µM)
- EC50 (R. subcapitata [6]; 72 h ref 42): 2.09 mg/L (≈ 6.79 µM)

Structure (SMILES): O[C@@](Cn1cnnn1)(c1ccc(F)cc1F)C(F)(F)c1ccc(-c2ccc(OCC(F)(F)F)cc2)cn1 [VT-1161, oteseconazole]
- immobility (Daphnia magna; D. magna, 48 h): 100%
- EC50 (Daphnia magna; Daphnia magna, read-out: EC50 (effective concentration causing 50% of immobility), D. magna, 48 h): 20.9 mg/L (≈ 39.7 µM)
- Hazard Ranking (Daphnia magna): ** (Harmful: (<10 mg L^−1 ≤ 100 mg L^−1))
- Hazard Ranking (Raphidocelis subcapitata): ** (Harmful: (<10 mg L^−1 ≤ 100 mg L^−1))
- EC50 (Raphidocelis subcapitata; Raphidocelis subcapitata, read-out: EC50 (effective concentration causing 50% growth inhibition), R. subcapitata, 72 h): 27.9 mg/L (≈ 52.9 µM)
- inhibition at 50 µg/mL (Raphidocelis subcapitata; Raphidocelis subcapitata, R. subcapitata, 72 h, 50 mg L^−1): ~65%
- EC50 (Aliivibrio fischeri; Aliivibrio fischeri, 0.5 h, read-out: EC50 (effective concentration causing 50% luminescence inhibition), A. fischeri, 30 min): 22.4 mg/L (≈ 42.5 µM)
- inhibition at 50 µg/mL (Aliivibrio fischeri; Aliivibrio fischeri, 0.5 h, A. fischeri, 30 min, 50 mg L^−1): ~63%
- Hazard Ranking (Aliivibrio fischeri; GHS, from EC50 A. fischeri 30 min, this study): ** (Harmful: (<10 mg L^−1 ≤ 100 mg L^−1))
- mutagenicity (result in words) [7]: non-positive mutagenicity
- mutagenicity ratio [7]: < 2
- EC50 ([8]; A. fischeri, R. subcapitata, D. magna, read-out: EC50 values, range over the species tested): 20.9 to 27.9 mg/L (≈ 39.7 to 52.9 µM)
- GHS classification (in words) ([8]; EC50 values between 10 mg L^−1 and 100 mg L^−1): harmful

Structure (SMILES): CC(C)(C)C(=O)C(Oc1ccc(Cl)cc1)n1ccnc1 (centres unmarked) [climbazole]
- EC50 (D. magna [2]; exposure time not printed ref 30): 15.99 mg/L (≈ 54.6 µM)
